This is an account of results in patent US8945865B2, “Method for screening for compound capable of enhancing or inhibiting OATP1B1 transport activity, and method for determining expression level of OATP1B1” (Eisai R&D Management Co., Ltd., priority 2011, dated 2015).

As usually defined, the Ki is a dissociation constant, usually derived from enzyme kinetics or from competition with a known ligand. As a reminder, the Km is the concentration of substrate that gives half-maximal velocity.

The target in data set [1] is T1, OATP1B1 (Homo sapiens, UniProt Q9Y6L6, N130D).
T1 sequence (Q9Y6L6 1-691 N130D): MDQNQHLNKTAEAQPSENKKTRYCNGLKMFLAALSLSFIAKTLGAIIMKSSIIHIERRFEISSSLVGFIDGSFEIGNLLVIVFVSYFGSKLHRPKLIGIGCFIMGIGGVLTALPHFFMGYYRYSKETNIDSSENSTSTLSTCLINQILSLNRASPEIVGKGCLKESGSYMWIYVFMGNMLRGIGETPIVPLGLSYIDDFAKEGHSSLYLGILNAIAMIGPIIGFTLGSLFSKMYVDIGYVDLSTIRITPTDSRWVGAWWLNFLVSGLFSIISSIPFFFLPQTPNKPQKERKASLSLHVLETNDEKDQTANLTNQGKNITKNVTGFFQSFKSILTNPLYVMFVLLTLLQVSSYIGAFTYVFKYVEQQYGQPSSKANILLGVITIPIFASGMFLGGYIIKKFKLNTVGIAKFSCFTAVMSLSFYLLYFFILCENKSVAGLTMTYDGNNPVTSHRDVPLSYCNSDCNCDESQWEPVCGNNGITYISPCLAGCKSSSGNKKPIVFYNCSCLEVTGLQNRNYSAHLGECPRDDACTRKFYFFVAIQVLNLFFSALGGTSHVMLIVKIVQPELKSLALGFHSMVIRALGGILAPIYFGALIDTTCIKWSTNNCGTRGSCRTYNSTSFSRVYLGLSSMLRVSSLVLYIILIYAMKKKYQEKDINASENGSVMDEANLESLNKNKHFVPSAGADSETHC
Briefly: OATP1B1 inhibition, DCF method (fluorescent substrate).

Data set [2] deals with T1, OATP1B1. Nature of the data set: OATP1B1 inhibition, conventional RI method (radiolabeled estradiol-17β-D-glucuronide). As for the experimental part:
In the conventional RI method, radiolabeled estradiol-17β-D-glucuronide (EG) was used. […] Subsequently, the cells were washed with an ice-cold KH buffer three times and then solubilized with an aqueous 0.1 N NaOH solution, and after neutralization with an aqueous 1 N HCl solution, the radioactivity taken up by the cells was measured.

Data set [3] deals with human hepatocytes. Briefly: Effect of OATP inhibitors on DCF uptake by human hepatocytes. Conditions: inhibitor final 10 μM, 37° C.; reduced to the level comparable to the uptake at 4° C. Here is the method:
(§1) Human hepatocytes were prepared as in Example 6, and a hepatocyte suspension was prepared at 1×10^6 cells/mL.

Data set [4] addresses T1, OATP1B1. Nature of the data set: Time profiles of the uptake of DCF by OATP1B1. In kind it is in vitro ADME. On the set-up: Expression vectors, pcDNA3.1 vectors (Invitrogen Corporation), carrying the resulting genes were respectively introduced into HEK-293 cells; expressed in transfected cells; host or cells: HEK-293 cells, pcDNA3.1 vector, hygromycin selection. Conditions: 0.1, 1 and 10 μM DCF, 37° C., 1 to 30 min.
Description: The cells were sampled at the incubation times of 1 min, 5 min, 10 min, and 30 min, washed with an ice-cold KH buffer three times, and then solubilized with an aqueous 0.1 N NaOH solution, and the fluorescence intensity of the fluorescent dye taken up by the cells was measured as in Example 1 (excitation wavelength: 490 nm, fluorescence wavelength: 515 nm).

Data set [5] relates to human hepatocytes. Nature of the data set: Time/temperature-dependent uptake of DCF by human hepatocytes. It counts as in vitro ADME. Conditions: 37° C. versus 4° C., 0.5 to 5 min, cryopreserved human hepatocytes. As for the experimental part: Cryopreserved human hepatocytes and cryopreserved hepatocytes recovery medium (CHRM) were purchased from Invitrogen Corporation. The cryopreserved human hepatocytes were thawed in a water bath at 37° C. and were added to the CHRM prewarmed at 37° C. After centrifugation at room temperature, the supernatant was discarded, and a hepatocyte suspension at 1×10^6 cells/mL was prepared in ice-cold KH buffer and stored on ice. […] The hepatocytes were incubated at 37° C. and 4° C., respectively, for 0 to 5 minutes. […] Specifically, 80 μL of the hepatocyte suspension was collected and added to a centrifugal tube containing 50 μL of oil (specific gravity: 1.015, Sigma-Aldrich Co.) and 100 μL of an aqueous 2 N NaOH solution under the oil layer, and centrifugation was performed at 10,000 g for 20 seconds. By the centrifugation, the hepatocytes passed through the oil layer and were solubilized with an aqueous 2 N NaOH solution.

For data set [6], the target named is T1, OATP1B1.
Description: The Km and Vmax were calculated by the following Michaelis-Menten equation. […] Each parameter represents the mean value of four independent experiments.
The next data set concerns the target T2, OAT3 (Homo sapiens, UniProt Q8TCC7).
T2 sequence (Q8TCC7 1-542): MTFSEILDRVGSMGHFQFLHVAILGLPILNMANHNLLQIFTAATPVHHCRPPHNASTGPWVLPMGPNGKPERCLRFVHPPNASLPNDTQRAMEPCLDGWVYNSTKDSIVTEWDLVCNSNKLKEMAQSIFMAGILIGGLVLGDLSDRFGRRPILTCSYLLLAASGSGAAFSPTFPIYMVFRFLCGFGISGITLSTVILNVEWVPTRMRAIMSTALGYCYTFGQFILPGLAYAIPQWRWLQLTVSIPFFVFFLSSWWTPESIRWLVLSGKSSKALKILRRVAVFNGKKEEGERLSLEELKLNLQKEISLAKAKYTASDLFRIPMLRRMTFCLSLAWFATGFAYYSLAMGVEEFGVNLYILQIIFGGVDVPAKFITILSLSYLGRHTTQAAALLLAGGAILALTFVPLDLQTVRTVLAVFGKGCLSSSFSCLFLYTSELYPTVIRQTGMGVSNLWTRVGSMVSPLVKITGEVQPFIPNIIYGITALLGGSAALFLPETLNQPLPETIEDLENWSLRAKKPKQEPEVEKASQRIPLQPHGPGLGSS
Briefly: Substrate specificity of fluorescein derivatives on OAT3 (same method). Conditions: FIG. 1(b), same method as Example 1.

The target of data set [7] is T1, OATP1B1. Nature of the data set: Substrate specificity of fluorescein derivatives: uptake by HEK-293 cells forcedly expressing OATP1B1. In kind it is in vitro ADME. On the set-up: Expression vectors, pcDNA3.1 vectors (Invitrogen Corporation), carrying the resulting genes were respectively introduced into HEK-293 cells; expressed in transfected cells; host or cells: HEK-293 cells, pcDNA3.1 vector, hygromycin selection. Conditions: 1 μM dye, 37° C., 5 minutes, compared with OATP1B3 and OATP2B1. As for the experimental part: Complementary DNAs of OATP1B1, OATP1B3, and OATP2B1 (respectively shown by SEQ ID NOs: 2, 3, and 4) were cloned by RT-PCR using human liver total RNA (Invitrogen Corporation) as a template and the following primers: […]
Expression vectors, pcDNA3.1 vectors (Invitrogen Corporation), carrying the resulting genes were respectively introduced into HEK-293 cells by lipofection using Lipofectamin 2000 (Invitrogen Corporation). The cells were cultured in Hygromycin-containing selective media to produce HEK-293 cells forcedly expressing OATP1B1, OATP1B3, and OATP2B1, respectively.

Data set [8] concerns human hepatocytes. As for the experimental part:
as §1

Data set [9] deals with T1, OATP1B1. Nature of the data set: Effect of known OATP inhibitors on OATP1B1-mediated uptake of DCF. Conditions: DCF 3 μM, inhibitor 10 and 30 μM.
[10] abbreviates: read-out: Ki (DCF), substrate DCF 3 μM, HEK-293 cells forcedly expressing OATP1B1, 37° C., 5 minutes.
[11] abbreviates: read-out: Ki (EG), substrate radiolabeled EG 0.01 μM, HEK-293 cells forcedly expressing OATP1B1, 37° C., 5 minutes.

Description for OAT3: The above cells were seeded in a poly-D-lysine-coated dish at 4×10^5 cells/well. The medium was replaced with a KH buffer, and various fluorescent dyes dissolved in DMSO were added to the respective HEK-293 cells such that the final concentration in the KH buffer was 1 μM, followed by incubation at 37° C. for 5 minutes. Subsequently, the cells were washed with an ice-cold KH buffer three times and were then solubilized with an aqueous 0.1 N NaOH solution, and the fluorescence intensity of the fluorescent dye taken up by the cells was measured (excitation wavelength: 490 nm, fluorescence wavelength: 515 nm).
In order to quantitatively measure the amount of fluorescent compound taken up by the cells, a calibration curve showing the fluorescence intensity per unit fluorescent compound was prepared in advance. Based on this calibration curve, the measured fluorescence intensity was converted into the fluorescent compound per well (pmol/well or μL/well), which was divided by the total protein amount (mg protein/well) of the solubilized cells (standardization) to convert into the fluorescent compound amount per unit protein (pmol/mg protein or μL/mg protein).

Turning to `O=C1OC(c2ccc(O)c(S(=O)(=O)O)c2)(c2ccc(O)c(S(=O)(=O)O)c2)c2c(Br)c(Br)c(Br)c(Br)c21` [BSP, bromosulfophthalein], the inhibition constant Ki stood at 0.092 µM on OATP1B1 [1] (setting [10]) and 73 nM at OATP1B1 [2] (setting [11]). Also, in the data set on human hepatocytes [3], the “DCF uptake by human hepatocytes in presence of inhibitor” value is “reduced”.

`CN/C(=N/CCSCc1nc[nH]c1C)NC#N` [Cimetidine]: the Ki was over 300 µM on OATP1B1 [1] and over 300000 nM on OATP1B1 [2].

As to `O=C1OC2(c3cc(Cl)c(O)cc3Oc3cc(O)c(Cl)cc32)c2ccccc21` [DCF, Dichlorofluorescein], the “uptake amount of DCF by HEK-293 cells forcedly expressing OATP1B1” value at OATP1B1 [4] is “increases over time and depends on the concentration of added DCF”. The “transporter-mediated uptake of DCF by human hepatocytes” value with human hepatocytes [5] is on record as “increases over time”. Also, the Km came to 7.22 µM on OATP1B1 [6] and 38.6 µM in the data set on human hepatocytes [8]. The “substrate for OAT3” value at OAT3 is on record as “not a satisfactory substrate”. Also, the “uptake of fluorescent dye among the combinations of fluorescent dye and transporters tested” value on OATP1B1 [7] is reported as “highest uptake”.

In the case of `C[C@]12CC[C@@H]3c4ccc(OS(=O)(=O)O)cc4CC[C@H]3[C@@H]1CCC2=O` [ES, estrone-3-sulfate], the “concentration dependence of inhibition of OATP1B1-mediated DCF uptake” value at OATP1B1 [9] is “inhibition depends on the concentrations”. Further, the Ki on OATP1B1 [1] (setting [10]) came to 0.079 µM; at OATP1B1 [2] (setting [11]), 78 nM.

On to `CC[C@H]1OC(=O)[C@H](C)[C@@H](O[C@H]2C[C@@](C)(OC)[C@@H](O)[C@H](C)O2)[C@H](C)[C@@H](O[C@@H]2O[C@H](C)C[C@H](N(C)C)[C@H]2O)[C@](C)(O)C[C@@H](C)C(=O)[C@H](C)[C@@H](O)[C@]1(C)O` [Erythromycin], for which the Ki at OATP1B1 [1] was 6.99 µM; on OATP1B1 [2], 4140 nM.

For the compound `CC(=O)N1CCN(c2ccc(OCC3COC(Cn4ccnc4)(c4ccc(Cl)cc4Cl)O3)cc2)CC1` (stereo not drawn) [Ketoconazole], the figures for the Ki at OATP1B1 [1] and on OATP1B1 [2] were 15.6 µM and 12200 nM, respectively.

On to `CN(Cc1cnc2nc(N)nc(N)c2n1)c1ccc(C(=O)N[C@@H](CCC(=O)O)C(=O)O)cc1` [Methotrexate], for which the Ki at OATP1B1 [1] was over 300 µM; on OATP1B1 [2], over 300000 nM.

As for `CO[C@H]1/C=C/O[C@@]2(C)Oc3c(C)c(O)c4c(O)c(c(/C=N/N5CCN(C)CC5)c(O)c4c3C2=O)NC(=O)/C(C)=C\C=C\[C@H](C)[C@H](O)[C@@H](C)[C@@H](O)[C@@H](C)[C@H](OC(C)=O)[C@@H]1C` [Rifampicin, rifampicin], the values for the inhibition constant Ki at OATP1B1 [1] and on OATP1B1 [2] were 0.26 µM and 290 nM, respectively.

On to `C=CC[C@@H]1/C=C(\C)C[C@H](C)C[C@H](OC)[C@H]2O[C@@](O)(C(=O)C(=O)N3CCCC[C@H]3C(=O)O[C@H](/C(C)=C/[C@@H]3CC[C@@H](O)[C@H](OC)C3)[C@H](C)[C@@H](O)CC1=O)[C@H](C)C[C@@H]2OC` [Tacrolimus], for which the inhibition constant (Ki) stood at 1.27 µM at OATP1B1 [1] and 890 nM on OATP1B1 [2].

Regarding `C[C@H](CCC(=O)NCCS(=O)(=O)O)[C@H]1CC[C@H]2[C@@H]3[C@H](O)C[C@@H]4C[C@H](O)CC[C@]4(C)[C@H]3C[C@H](O)[C@]12C` [Taurocholic acid], the inhibition constant Ki on OATP1B1 [1] is 8.68 µM; at OATP1B1 [2], 17500 nM.

In the case of `C[C@]12CC[C@@H]3c4ccc(O)cc4CC[C@H]3[C@@H]1CC[C@@H]2O[C@@H]1O[C@H](C(=O)O)[C@@H](O)[C@H](O)[C@H]1O` [estradiol-17β-D-glucuronide], on OATP1B1 [9], the “concentration dependence of inhibition of OATP1B1-mediated DCF uptake” value is listed as “inhibition depends on the concentrations”.
